Measured values: patent US7803822B2, “Triazole derivative and use thereof” (Takeda Pharmaceutical Company Limited, priority 2005, dated 2010)

target: T1, human PAR-1 (Homo sapiens, UniProt P25116); experiment: Evaluation of PAR-1 antagonistic action by intracellular calcium concentration variation assay (FLIPR); assay type: cell-based; conditions: human PAR-1-expressing CHO cells, agonist peptide SFLLRN-NH2 final concentration 0.3 nM, Fluo-3AM
T1 construct: expressed in transfected cells; host or cells: CHO-K1 (transformant flag/trn/CHO-K1)
T1 sequence (P25116 22-425): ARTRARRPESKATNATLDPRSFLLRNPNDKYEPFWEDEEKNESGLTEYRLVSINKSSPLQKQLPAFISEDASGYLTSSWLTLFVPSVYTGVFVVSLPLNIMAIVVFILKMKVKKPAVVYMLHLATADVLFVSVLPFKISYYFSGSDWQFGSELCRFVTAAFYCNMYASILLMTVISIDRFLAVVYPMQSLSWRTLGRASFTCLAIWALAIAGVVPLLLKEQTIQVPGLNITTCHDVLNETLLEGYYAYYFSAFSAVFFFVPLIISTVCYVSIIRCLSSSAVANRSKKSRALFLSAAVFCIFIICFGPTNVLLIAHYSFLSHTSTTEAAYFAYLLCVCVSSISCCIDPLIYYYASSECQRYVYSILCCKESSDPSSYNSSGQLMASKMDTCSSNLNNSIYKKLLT
Procedure: Evaluation of PAR-1 Antagonistic Action of Compound by Intracellular Calcium Concentration Variation Assay
Human PAR-1-expressing cells was plated at 3×10^4 cells/well on a 96 well clear bottom plate (Corning 3904 type) and cultured for 16-24 hr. The medium was removed from the wells of the plate, measurement buffer (50 μL, 115 mM NaCl, 5.4 mM KCl, 1.8 mM CaCl2, 0.8 mM MgCl2, 13.8 mM D-glucose, 0.1% BSA, 20 mM HEPES, pH 7.4) containing 2.5 μg/mL of Fluo-3AM (manufactured by Dojindo Laboratories), 0.08% Pluronic F-127 and 2.5 mM Probenecid was added to the cells and the mixture was reacted at 37° C. for 1 hr. The cells were washed twice with the measurement buffer. After addition of the measurement buffer (100 μL), a measurement buffer (50 μL) containing a test compound was added, and the mixture was stood still for 10 min. The plate was moved to a fluorometry image-plate reader (FLIPR-1, manufactured by Molecular Devices). […] The intracellular calcium concentration was measured by FLIPR.

Row | Compound | IC50
1 | CCCc1c(C(=O)NCC2CCCO2)nnn1-c1ccc(C(=O)NCC)cc1 (centres unmarked) [Example 82, 1-{4-[(ethylamino)carbonyl]phenyl}-5-propyl-N-(tetrahydrofuran-2-ylmethyl)-1H-1,2,3-triazole-4-carboxamide] | 1900 nM
2 | CCCc1c(C(=O)NCc2cnc(C)cn2)nnn1-c1ccc(C(=O)NCC)cc1 [Example 83, 1-{4-[(ethylamino)carbonyl]phenyl}-N-[(5-methylpyrazin-2-yl)methyl]-5-propyl-1H-1,2,3-triazole-4-carboxamide] | 3600 nM
3 | CCCc1c(C(=O)NCc2ccccn2)nnn1-c1ccc(C(=O)NCC)cc1 [Example 84, 1-{4-[(ethylamino)carbonyl]phenyl}-5-propyl-N-(pyridin-2-ylmethyl)-1H-1,2,3-triazole-4-carboxamide] | 1300 nM
4 | CCCc1c(C(=O)N2CCc3c([nH]c4ccccc34)C2)nnn1-c1ccc(C(=O)NCC)cc1 [Example 85, N-ethyl-4-[5-propyl-4-(1,3,4,9-tetrahydro-2H-β-carbolin-2-ylcarbonyl)-1H-1,2,3-triazol-1-yl]benzamide] | 1900 nM
5 | CCCCc1c(C(=O)NC2CC2)nnn1-c1ccc(C(=O)NCC)cc1 [Example 90, 5-butyl-N-cyclopropyl-1-{4-[(ethylamino)carbonyl]phenyl}-1H-1,2,3-triazole-4-carboxamide] | 2400 nM
6 | CCNC(=O)c1ccc(-n2nnc(C(=O)NC3CC3)c2CCCOCc2ccccc2)cc1 [Example 91, 5-[3-(benzyloxy)propyl]-N-cyclopropyl-1-{4-[(ethylamino)carbonyl]phenyl}-1H-1,2,3-triazole-4-carboxamide] | 2200 nM
7 | CCNC(=O)c1ccc(-n2nnc(C(=O)NC3CC3)c2CC(C)C)cc1 [Example 93, N-cyclopropyl-1-{4-[(ethylamino)carbonyl]phenyl}-5-isobutyl-1H-1,2,3-triazole-4-carboxamide] | 1200 nM
8 | CCNC(=O)c1ccc(-n2nnc(C(=O)NC3CC3)c2COCc2ccccc2)cc1 [Example 94, 5-[(benzyloxy)methyl]-N-cyclopropyl-1-{4-[(ethylamino)carbonyl]phenyl}-1H-1,2,3-triazole-4-carboxamide] | 1700 nM
9 | CCNC(=O)c1ccc(-n2nnc(C(=O)NC3CC3)c2CC2CC2)cc1 [Example 96, N-cyclopropyl-5-(cyclopropylmethyl)-1-{4-[(ethylamino)carbonyl]phenyl}-1H-1,2,3-triazole-4-carboxamide] | 1200 nM
10 | CCNC(=O)c1ccc(-n2nnc(C(=O)NC3CC3)c2CCC(C)C)cc1 [Example 97, N-cyclopropyl-1-{4-[(ethylamino)carbonyl]phenyl}-5-(3-methylbutyl)-1H-1,2,3-triazole-4-carboxamide] | 1600 nM
11 | CCNC(=O)c1ccc(-n2nnc(C(=O)NC3CC3)c2Cc2ccccc2)cc1 [Example 99, 5-benzyl-N-cyclopropyl-1-{4-[(ethylamino)carbonyl]phenyl}-1H-1,2,3-triazole-4-carboxamide] | 1300 nM
12 | CCNC(=O)c1ccc(-n2nnc(C(=O)NC3CC3)c2CCCCCc2ccccc2)cc1 [Example 101, N-cyclopropyl-1-{4-[(ethylamino)carbonyl]phenyl}-5-(5-phenylpentyl)-1H-1,2,3-triazole-4-carboxamide] | 820 nM
13 | CCNC(=O)c1ccc(-n2nnc(C(=O)NC3CC3)c2CC2CCCCC2)cc1 [Example 102, 5-(cyclohexylmethyl)-N-cyclopropyl-1-{4-[(ethylamino)carbonyl]phenyl}-1H-1,2,3-triazole-4-carboxamide] | 1800 nM
14 | CCNC(=O)c1ccc(-n2nnc(C(=O)NC3CC3)c2CC2CCCC2)cc1 [Example 103, 5-(cyclopentylmethyl)-N-cyclopropyl-1-{4-[(ethylamino)carbonyl]phenyl}-1H-1,2,3-triazole-4-carboxamide] | 780 nM
15 | CCNC(=O)c1ccc(-n2nnc(C(=O)NC3CC3)c2-c2ccccc2)cc1 [Example 105, N-cyclopropyl-1-{4-[(ethylamino)carbonyl]phenyl}-5-phenyl-1H-1,2,3-triazole-4-carboxamide] | 2700 nM
16 | CCNC(=O)c1ccc(-n2nnc(C(=O)NC3CC3)c2CCCF)cc1 [Example 109, N-cyclopropyl-1-{4-[(ethylamino)carbonyl]phenyl}-5-(3-fluoropropyl)-1H-1,2,3-triazole-4-carboxamide] | 3400 nM
17 | CCNC(=O)c1ccc(-n2nnc(C(=O)NC3CC3)c2CCCO)cc1 [Example 113, N-cyclopropyl-1-{4-[(ethylamino)carbonyl]phenyl}-5-(3-hydroxypropyl)-1H-1,2,3-triazole-4-carboxamide] | 3100 nM
18 | CCNC(=O)c1ccc(-n2nnc(C(=O)NC3CC3)c2COc2cccc(Cl)n2)cc1 [Example 118, 5-{[(6-chloropyridin-2-yl)oxy]methyl}-N-cyclopropyl-1-{4-[(ethylamino)carbonyl]phenyl}-1H-1,2,3-triazole-4-carboxamide] | 1400 nM
19 | CCNC(=O)c1ccc(-n2nnc(C(=O)NC3CC3)c2COc2ccc(OC)cc2)cc1 [Example 122, N-cyclopropyl-1-{4-[(ethylamino)carbonyl]phenyl}-5-[(4-methoxyphenoxy)methyl]-1H-1,2,3-triazole-4-carboxamide] | 3300 nM
20 | CCNC(=O)c1ccc(-n2nnc(C(=O)NC3CC3)c2COc2ccc(F)cc2)cc1 [Example 123, N-cyclopropyl-1-{4-[(ethylamino)carbonyl]phenyl}-5-[(4-fluorophenoxy)methyl]-1H-1,2,3-triazole-4-carboxamide] | 980 nM
21 | C/C=C/c1c(C(=O)NC2CC2)nnn1-c1ccc(C(=O)NCC(F)(F)F)cc1 [Example 399, N-cyclopropyl-5-[(1E)-prop-1-en-1-yl]-1-(4-{[(2,2,2-trifluoroethyl)amino]carbonyl}phenyl)-1H-1,2,3-triazole-4-carboxamide] | 1400 nM

Compounds with a lower IC50, results first:

Row | IC50 | Compound
22 | 620 nM | CCCc1c(C(=O)NCc2ccc3c(c2)OCO3)nnn1-c1ccc(C(=O)NCC)cc1 [Example 86, N-(1,3-benzodioxol-5-ylmethyl)-1-{4-[(ethylamino)carbonyl]phenyl}-5-propyl-1H-1,2,3-triazole-4-carboxamide]
23 | 280 nM | CCCc1c(C(=O)NCCc2c[nH]c3ccc(OC)cc23)nnn1-c1ccc(C(=O)NCC)cc1 [Example 87, 1-{4-[(ethylamino)carbonyl]phenyl}-N-[2-(5-methoxy-1H-indol-3-yl)ethyl]-5-propyl-1H-1,2,3-triazole-4-carboxamide]
24 | 720 nM | CCCc1c(C(=O)NCc2cccc(F)c2)nnn1-c1ccc(C(=O)NCC)cc1 [Example 88, 1-{4-[(ethylamino)carbonyl]phenyl}-N-(3-fluorobenzyl)-5-propyl-1H-1,2,3-triazole-4-carboxamide]
25 | 670 nM | CCCc1c(C(=O)NC2CCCc3ccccc32)nnn1-c1ccc(C(=O)NCC)cc1 (centres unmarked) [Example 89, 1-{4-[(ethylamino)carbonyl]phenyl}-5-propyl-N-(1,2,3,4-tetrahydronaphthalen-1-yl)-1H-1,2,3-triazole-4-carboxamide]
26 | 500 nM | CCNC(=O)c1ccc(-n2nnc(C(=O)NC3CC3)c2CCc2ccccc2)cc1 [Example 98, N-cyclopropyl-1-{4-[(ethylamino)carbonyl]phenyl}-5-(2-phenylethyl)-1H-1,2,3-triazole-4-carboxamide]
27 | 700 nM | CCNC(=O)c1ccc(-n2nnc(C(=O)NC3CC3)c2CCCc2ccccc2)cc1 [Example 100, N-cyclopropyl-1-{4-[(ethylamino)carbonyl]phenyl}-5-(3-phenylpropyl)-1H-1,2,3-triazole-4-carboxamide]
28 | 400 nM | CCNC(=O)c1ccc(-n2nnc(C(=O)NC3CC3)c2/C=C/c2ccccc2)cc1 [Example 106, N-cyclopropyl-1-{4-[(ethylamino)carbonyl]phenyl}-5-[(E)-2-phenylvinyl]-1H-1,2,3-triazole-4-carboxamide]
29 | 620 nM | CCNC(=O)c1ccc(-n2nnc(C(=O)NC3CC3)c2CCCCF)cc1 [Example 108, N-cyclopropyl-1-{4-[(ethylamino)carbonyl]phenyl}-5-(4-fluorobutyl)-1H-1,2,3-triazole-4-carboxamide]
30 | 750 nM | CCNC(=O)c1ccc(-n2nnc(C(=O)NC3CC3)c2COc2ccc(Br)cc2)cc1 [Example 116, 5-[(4-bromophenoxy)methyl]-N-cyclopropyl-1-{4-[(ethylamino)carbonyl]phenyl}-1H-1,2,3-triazole-4-carboxamide]
31 | 480 nM | CCNC(=O)c1ccc(-n2nnc(C(=O)NC3CC3)c2CSc2ccccc2)cc1 [Example 130, N-cyclopropyl-1-{4-[(ethylamino)carbonyl]phenyl}-5-[(phenylthio)methyl]-1H-1,2,3-triazole-4-carboxamide]
32 | 270 nM | CCNC(=O)c1ccc(-n2cc(C(=O)NC3CC3)nn2)c(OCCCc2ccccc2)c1 [Example 133, N-cyclopropyl-1-{4-[(ethylamino)carbonyl]-2-(3-phenylpropoxy)phenyl}-1H-1,2,3-triazole-4-carboxamide]
